Patent US10925913B2, “Low toxic tripterygium neoglycosides, preparation method and application thereof” (priority 2017, dated 2021)
Entries after “also recorded” stand apart in the source; their conditions may differ.

Assays:
[1] = system: normal T and B lymphocytes; test: Immunosuppressive activity: inhibition of normal T/B lymphocyte increment (MTT); type: cell-based, rat; conditions: FIG. 4
Description: The rats were sacrificed by neck amputation and soaked in 75% ethanol. The spleens of the rats were taken out in an ultra-clean bench, washed in DPBS for 3 times, fully moistened, 200 mesh gauze was placed on a dish (35 mm diameter), it is evenly ground in one direction by a piston of a 10 mL syringe, the spleen was moistened with DPBS while grinding. The collected lymphocyte suspension was centrifuged at 1500 rpm for 3 min, and 7 mL of erythrocyte lysate was added to each spleen suspension. After acting at room temperature for 30 min, the cells were centrifuged at 1500 rpm for 3 min. After discarding supernatant, the cells were washed with DPBS for 3 times to remove excess serum, added with […] of 70% Percoll to the bottom layer of 15 mL centrifuge tube and […] of 40% Percoll to the upper layer of 15 mL centrifuge tube, then centrifuged 800 g at room temperature for 20 min on a horizontal centrifuge.

induced T/B lymphocyte = test: Specific inhibition experiment: Con A- or LPS-induced T/B lymphocyte increment (MTT); type: cell-based, rat; conditions: FIG. 5
Description: The pretreatment of lymphocytes in the specific inhibition experiment is the same as above. After lymphocytes inoculated into 96-well culture plates, drug was added. 200 μL of drug was added each to blank control group (culture medium only), T lymphocyte specific increment inducer Con A model group (5 μg/mL, corresponding model group) and B lymphocyte specific increment inducer LPS model group (5 μg/mL, corresponding model group). Con A administration group was firstly added multiple doses of T lymphocyte specific increment inducer Con A 100 μL ([…], corresponding model group) separately, and then added 100 μL of triptriolide (100, 200, 300, 400 μg/mL) with different concentrations separately. In LPS administration group, multiple doses of B lymphocyte specific increment inducer LPS 100 μL ([…], corresponding model group) were added respectively, and 100 μL of triptriolide (100, 200, 300, 400 μg/mL) with different concentrations were added respectively.

Raw264.7 cells = test: Anti-inflammatory activity in LPS-induced Raw264.7 cell inflammation model; type: cell-based, rat
Description: Raw264.7 37° C., 5% CO2 RPMI-1640+10% FBS+1% Pen Strep. Finally, the cell was cultured in an incubator until 80% of the cells adhere to the wall. The cells in logarithmic growth phase were taken and adjusted to the appropriate cell density in a 96-well plate after digestion with 0.25% trypsin. After adhering to the wall in monolayer, the cell was cultured in a synchronized medium for 12 hours. After entering the quiescent period, except for the blank control group, 1 mL of LPS (1 μg/mL) was used as a modeling agent in other groups to induce the cell inflammation model in the cell in each group. Meanwhile, drug treatment is carried out: 1 mL of culture medium was added to the model group, 1 mL of liquid drug with corresponding concentration was added to the drug administration group (triptolide 50, 100, 150, 200 μg/mL dose group), and 2 ml of culture medium was directly added to the blank control group. Western blot, qPCR, ELISA and other methods were used to detect the expression levels of inflammation-related proteins, genes, cytokines, the expressions of NF-κB transcription-related factors, and the expressions of IL-6, IL-10, TNF-α and other inflammatory cytokines in different treatment groups.

podocyte cell line MPCS = test: Protection of podocytes from ADM-induced apoptosis; type: cell-based, rat
Description: Rat immortalized podocyte cell line MPCS is presented by nephrology department of Guangdong provincial hospital of Traditional Chinese Medicine. The treatment methods of […] are presented as follows: Western blot, IFC, qPCR, ELISA and other methods are used to detect the expression levels of inflammation-related proteins, genes and cytokines in different treatment groups. The podocyte cell is temperature sensitive cell, increases at 33° C. RPMI-1640+10% FBS+1% Pen Strep+10 U/mL γ-IFN, and differentiates at 37° C. RPMI-1640+10% FBS+1% Pen Strep medium for 10-14 days. […] The expression of podocaine membrane protein podocine and apoptosis-related gene Bax were detected by flow cytometry using FITC-labeled Annexin V and Propidium iodide (PI) to differentiate early apoptotic cells from late apoptotic cells and dead cells.

[2] = system: rat with ear swelling model; conditions: Zheng Jiarun, et al., 1991; cited from earlier work

CC(C)[C@]1(O)[C@H](O)[C@@H]2O[C@]23[C@]2(O[C@H]2C[C@H]2C4=C(CC[C@@]23C)C(=O)OC4)[C@@H]1O [triptriolide]
inhibiting increment of normal T and B lymphocytes in vitro ([1]; 50, 100, 150, 200 μg/mL, 24 h, MTT): dose-dependent | cell activity of normal T and B lymphocytes ([1]; each administration group, p<0.05): significantly lower than that of the control group and model group | immunosuppressive effect (induced T/B lymphocyte; Con A-induced T vs LPS-induced B lymphocytes): lower immunosuppressive effect; also recorded: on T lymphocytes is significantly higher than that on B lymphocytes | cell activity of Con A- / LPS-induced lymphocytes (induced T/B lymphocyte; different concentrations, 24 h, MTT): higher than that of the blank control group, but lower than that of the model group | effects of inflammatory factors TNF-α and IL-10 (Raw264.7 cells; FIGS. 7 and 8): effectively reduce | cytokine secretion in LPS-induced inflammatory injury model (Raw264.7 cells; LPS 1 μg/mL, FIG. 6): can improve cytokine secretion | expression of IL-10 (Raw264.7 cells; at high concentration): can be increased | apoptosis of podocytes (podocyte cell line MPCS; 0.8 μg/mL ADM apoptosis model, FIGS. 9 to 11): attenuated | apoptosis of podocytes at high concentration (podocyte cell line MPCS; 0.8 μg/mL ADM, high concentration): upward trend | anti-inflammatory activity [2]: weak anti-inflammatory activity | immunosuppressive activity [2]: no immunosuppressive activity
